Like-named read-outs stand apart in the source and are kept apart here.
Legend:
[1] = Hygroscopicity test: weight changes at 25° C., 75% relative humidity; type: physicochemical
Method: 7-carboxymethyloxy-3′,4′,5-trimethoxy flavone.monohydrate prepared in the above example 1 or example 2 was exactly measured by using a weighing bottle (6 cm in diameter). 1 g of the 7-carboxymethyloxy-3′,4′,5-trimethoxy flavone.monohydrate was prepared as a sample. The sample was kept in a vessel in which temperature was set; at 25° C. and 75% relative humidity was maintained. Weight changes of the sample were measured after 2, 4, and 6 hours and on the first day, on the 3rd day, and on the 6th day. The amount of weight change was calculated as percentage to the starting weight of the sample and the results are shown in Table 1.
Weight changes of 7-carboxymethyloxy-3′,4′,5-trimethoxy flavone.anhydride prepared in the comparative example were also measured by the same method as mentioned above, and the results are shown in Table 1.

[2] = Test of conversion of ethanol solvate into monohydrate: weight changes at 25° C., 75% relative humidity; type: physicochemical
Method: 7-carboxymethyloxy-3′,4′,5-trimethoxy flavone.monohydrate prepared in the above example 1 or example 2 was measured by using a weighing bottle (6 cm in diameter). 1 g of the 7-carboxymethyloxy-3′,4′,5-trimethoxy flavone.monohydrate was prepared as a sample. The sample was kept in a receptacle in which temperature was set at 25° C. and 75% relative humidity. On the let, 1st, 2nd, 3rd and 6th day, the weight of samples were measured.
Weight changes of 7-carboxymethyloxy-3′,4′,5-trimethoxy flavone.ethanol solvate prepared in the above example 3 were also investigated by the same method as mentioned above, and the results are shown in Table 2.

[3] = tested on: TNBS-induced colitis model; test: Model of inflammatory bowel diseases induced with TNBS (lesion score); type: in vivo, male SD rats
Method: The modified method of Shibata et al. (Dig. Endosc. 1993, 5: 13) was used. 7 week-old male SD rats (CRJ) were fasted for a day, and the rats were put under anesthesia and canula (diameter 3 mm) was inserted into the anus to the depth of 8 cm. 25 mg/ml of TNBS (Trinitrobenzene sulfonic acid) dissolved in 50% ethanol solution was injected to each rat and the rats were positioned at feature of tail up for 1 minute. The solution flowing out was removed and the rats were once washed with 1.5 ml of saline solution. After colitis was induced, the compound of the present invention was administered orally or rectally from the next day of inducing to the 6th day. For control medicine, sulfasalazine […] was used for oral administration and prednisolone was used for rectal administration. And for control group, 5% HPMC was administered. On the 7th day of experiment, each group of the rats was put under ether anesthesia for autopsy. The colon was extracted. After 1% formalin solution was injected into the cavity of the extracted colon to inflate, the both ends of it were bonded with each other, which was then fixed in 1% formalin solution for 2 hours. The all-fixed colon was cut to lengthy direction and washed to remove surrounding fat tissues and connective fissaes. Cecum was removed and the weight of the colon and the rectum was measured. The area of ulcer lesion and inflammatory region were measured to mark scores according to the criterion. Then they were fixed in 10% neutral formalin solution, and the tissue examination of lesion site was performed by a general method to mark scores according to criterion.
Clinical symptoms: Daily, clinical symptoms and survival of the animals were observed. The weight of animals was measured at the beginning day, the 3rd day and the 8th day of the experiment.
Observation with naked eye: The number and the width of the ulcer and lesion area formed in the large intestine were measured and recorded. By using modified Wallace's method (Can. J. Physiol. Pharmacol., 1988, 66: 422), lesion examined with the naked eye was scored and the average value of each group was compared. The standard of lesion scores as criterion of the damage of the colon by Wallace's method […] is as follows.
(0: normal, non-damaged, 1: congestion without ulcer, 2: congestion and thickening of intestinal wall without ulcer, 3: an ulcer lesion without thickening of intestinal wall, 4: more than two ulcerous/inflammatory lesion, 5: more than two ulcerous/inflammatory lesion or the length of ulcerous/inflammatory lesion is more than 1 cm, 6-10: when the length of lesion is over 2 cm, one point increases every time 1 cm of the length of ulcerous/inflammatory increases, for example: when the ulcer length is 3 cm, the point is 7)
Pathological tissue examination: The colon was trimmed at 3 cm interval from the rectum to the cecum, including the site of lesion examined with the naked eye, to make at least 4 specimens per an individual. Pathological tissue examination on the specimens was performed and the results were scored by modified method of Moyama (Ann. Clin. Lab. Sci., 1990, 20: 420). And the highest score was regarded as the score of an individual. When the lesion cannot be examined with the naked eye, the other specimen having lesion was trimmed, at 3 cm interval, from another individual.

[4] = tested on: gastric mucosal damage induced by ethanolic-HCl; test: Gastric mucosal damaged model induced by ethanolic-HCl (ulcer index); type: in vivo, SD male rats; settings: rats, oral; for ED50: Rattus norvegicus, 1 hour before 150 mM HCl-80% ethanol, ulcer index
Method: SD male rats (250-350 g) were fasted for 24 hours. The compound of the present invention was orally administered in suspension of 5% HPMC, and after 1 hour, 1.5 ml of 150 mM HCl-80% ethanol was orally administered. After 1 hour, the rats were sacrificed and the stomachs were extracted to measure ulcer index. The ulcer index was shown by the area (mm^2) of hemorrhage lesion (Mizui, T, et al., Jpn. J. Pharmacol. 1983, 33: 939).
Rebamipide [2-(4-chlorobenzoylamino)-3-(2-(1H)-quinolinone-4-yl)propanonic acid] (Trade Name: Mucosta) was used as a control medicine.

[5] = listed as 7-carboxymethyloxy-3′,4′,5-trimethoxy flavone.monohydrate

Weight changes according to the time lapse (%) ([1]; 0 h)	Weight changes according to the time lapse (%) ([1]; 2 h)	Weight changes according to the time lapse (%) ([1]; 4 h)	Weight changes according to the time lapse (%) ([1]; 6 h)	Weight changes according to the time lapse (%) ([1]; 1 day)	Weight changes according to the time lapse (%) ([1]; 3 day)	Weight changes according to the time lapse (%) ([1]; 6 day)	Weight changes according to the time lapse (%) ([2]; 0 day)	Weight changes according to the time lapse (%) ([2]; 1 day)	Weight changes according to the time lapse (%) ([2]; 2 day)	Weight changes according to the time lapse (%) ([2]; 3 day)	Weight changes according to the time lapse (%) ([2]; 6 day)	Structure (SMILES)	ED50 [4]	also measured
0%	+3.4%	+4.7%	+4.7%	+4.6%	+4.5%	+4.6%						COc1ccc(-c2cc(=O)c3c(OC)cc(OCC(=O)O)cc3o2)cc1OC [Anhydride, reference compound]		Weight changes according to the time lapse (%) ([1]; 2 h, listed as 7-carboxymethyloxy-3′,4′,5-trimethoxy flavone.anhydride): 3.4%; weight increase (average) ([1]; from the 4th hour): 4.6%
							0%	−4.1%	−6.5%	−6.5%	−6.5%	COc1ccc(-c2cc(=O)c3c(OC)cc(OCC(=O)O)cc3o2)cc1OC [Ethanol solvate, 7-carboxymethyloxy-3′,4′,5-trimethoxy flavone.ethanol solvate]		weight change / conversion (in words) [2]: converted into monohydrate; weight decrease (average) ([2]; after one day): 4.1%; weight decrease (average) ([2]; after two days, constant thereafter): 6.5%
0%	−0.2%	−0.3%	+0.2%	−0.3%	+0.3%	+0.3%	0%	−0.3%	+0.3%	+0.3%	+0.3%	COc1ccc(-c2cc(=O)c3c(OC)cc(OCC(=O)O)cc3o2)cc1OC [Monohydrate, 7-carboxymethyloxy-3′,4′,5-trimethoxy flavone.monohydrate]	0.33 mg/kg	effect on the TNBS-induced inflammatory colitis model (in words) ([3]; oral and rectal administration): showed inhibiting effect; Lesion score ([3]; orally administered, 0.3 mg/kg p.o, control 5% HPMC 9.0): 7.5; Lesion score ([3]; orally administered, 3 mg/kg p.o, control 5% HPMC 9.0): 5.9; Lesion score ([3]; rectally administered, 0.3 mg/kg, control 5% HPMC 5.3): 2.0; weight change / hygroscopicity (in words) [1, 5]: did not show any weight change; weight change / hygroscopicity (in words) ([1]; listed as monohydrate): no weight change; protecting effect on the damage of gastric mucosa relative to Rebamipide ([4]; ratio of ED50): at least 100 times; weight change / conversion (in words) [2, 5]: did not show any weight change
												C[C@]12C=CC(=O)C=C1CC[C@@H]1[C@@H]2[C@@H](O)C[C@@]2(C)[C@H]1CC[C@]2(O)C(=O)CO [Prednisolone, reference compound]		Lesion score ([3]; rectally administered, 1 mg/kg, control 5% HPMC 5.3): 4.8
												O=C(NC(Cc1cc(=O)[nH]c2ccccc12)C(=O)O)c1ccc(Cl)cc1 (centres unmarked) [Rebamipide, 2-(4-chlorobenzoylamino)-3-(2-(1H)-quinolinone-4-yl)propanonic acid, reference compound]	44.2 mg/kg	
												O=C(O)c1cc(/N=N/c2ccc(S(=O)(=O)Nc3ccccn3)cc2)ccc1O [Sulfasalazine, reference compound]		Lesion score ([3]; orally administered, 100 mg/kg p.o, control 5% HPMC 9.0): 7.7
